In patent US12227721B2, “Hydrofluorothioethers and methods of using same” (3M INNOVATIVE PROPERTIES COMPANY, priority 2020, dated 2025):

Key:
[1] = Largest Soluble Hydrocarbon (LSH); assay type: physicochemical; details: test material to hydrocarbon ratio approximately 1:1 to 1:2 by weight, no haze to the naked eye
Experimental: Largest Soluble Hydrocarbon (LSH): The LSH of each hydrofluorothioether and competitive example was determined by mixing the compound with hydrocarbons of varying molecular weight (CnH2n+2, where n=9 to 24) in a test material to hydrocarbon ratio of approximately 1:1 to 1:2 by weight at room temperature (23° C.) and at 50° C. […] A larger value of n is interpreted herein to indicate a greater ability of the hydrofluorothioether to clean hydrocarbons.
Table 2 summarizes results of Largest Soluble Hydrocarbon (LSH) testing of Examples 1-3 and Comparative Examples CE1-CE5.

[2] = Atmospheric lifetime from relative rate studies with hydroxyl radicals; assay type: physicochemical; details: rate of reaction with hydroxyl radicals relative to CH3Cl reference
Experimental: Atmospheric Lifetime and Global Warming Potential (GWP): The atmospheric lifetime of each test material was determined from relative rate studies utilizing chloromethane (CH3Cl) as a reference compound. The pseudo-first order reaction rates of the reference compound and the test compound with hydroxyl radicals (·OH) was determined in a laboratory chamber system. The atmospheric lifetime of the reference compound is documented in the literature. Based on this value and the pseudo-first order rates measured in the chamber experiments, the atmospheric lifetime for each specimen was calculated from the reaction rates for the test compound relative to the reference compounds and the reported lifetime of the reference compounds as shown below:
[formula] where τx is the atmospheric lifetime of test material, τr is the atmospheric lifetime of the reference compound, and kx and kr are the rate constants for the reaction of hydroxyl radical with test material and the reference compound, respectively. The concentrations of gases in the test chamber were quantified by Fourier transform infrared spectroscopy (FTIR). The measured atmospheric lifetime value of each fluid was subsequently used for the GWP calculation.

rats = assay: Repeat dose inhalation toxicity in rats; assay type: in vivo; details: 3 male rats, 750 ppm, 6-hour/day, five day repeated exposure
Experimental: Toxicity: The repeat dose inhalation toxicity in rats was determined by a five day repeated exposure of 3 male rats to 750 ppm of the test compound for 6 hours per day.
The repeat dose inhalation toxicity in rats was determined by a five day repeated exposure of 3 male rats to 750 ppm (6-hour/day) of Example 2.

Compound	LSH (n in CnH2n+2) ([1]; 23° C.)	LSH (n in CnH2n+2) ([1]; 50° C.)	Atmospheric Lifetime [2] [years]	clinical signs of toxicity, body weights, organ weights (rats)	histopathological effects in respiratory tract, liver, kidneys (rats)
COC(F)(F)C(F)(F)C(F)(F)C(F)(F)F [CE1, n-C4F9—O—CH3]	9	9			
COC(F)(F)C(F)(F)C(F)(F)F [CE2, CF3(CF2)2—O—CH3]	10	10	5.0		
FC(F)(F)CC(F)(F)CCl [CE5]	14	17			
CSC(F)(F)C(F)(F)C(F)(F)C(F)(F)F [Example 1, n-C4F9—S—CH3]	18	21			
CSC(F)(C(F)(F)F)C(F)(F)F [Example 2, perfluoroisopropyl methyl thioether]	18	>23	0.01	no adverse clinical signs of toxicity, changes in body weights, or organ weights (lungs, liver, and kidneys)	No adverse histopathological effects were observed in the respiratory tract, liver, or kidneys
